From US20220323406A1, “METHODS AND COMPOSITIONS FOR DIFFERENTIATING STEM CELLS” (Massachusetts Institute of Technology, priority 2019, published 2022)

Tests used:
[1] = test system: 3D-cultured intestinal organoids (ENR or ENR+CD); assay: Lysozyme secretion assay (3D culture), normalized to ATP; type: cell-based, mouse
Description: Lysozyme assay (3D culture). ISC-enriched organoids cultured in 3D Matrigel with ENRCV media were passaged to 48-well plate in 3D Matrigel with ENRCV. At day zero, media were replaced to ENR or ENRCD with or without indicated compounds, and media were replaced every other day. At day six, cells were washed twice with basal media and treated with carbamylcholine chloride (Sigma, C4382) for 3 hours. Media were collected and lysozyme activity was measured by EnzChek Lysozyme Assay Kit (ThermoFisher, E22013).
Lysozyme secretion assay. ISC-enriched organoids in 3D Matrigel culture were passaged to a 48- or 96-well plate and cultured with ENR or ENR+CD media containing DMSO or each drug for 6 days. DMSO- or drug-containing media were changed every other day. On day 6, cells were washed with basal media twice and treated with basal media with or without 10 μM carbamoylcholine chloride for 3 h in a CO2 incubator at 37° C. A part of the conditioned media was collected and used for lysozyme assay (Thermo, E-22013) following the manufacturer's instruction. The fluorescence was measured using excitation/emission of 485/530 nm. CellTiter-Glo 3D Reagent (Promega, G9681) was added afterward, and the cell culture plate was incubated on an orbital shaker at RT for 30 min to induce cell lysis and to stabilize the luminescent signal. The solution was replaced to a 96-well white microplate, and luminescent signals were measured by a microplate reader (infinite M200, Tecan). The standard curve was prepared by diluting recombinant ATP (Promega, P1132). For both assays, a polynomial cubic curve was fitted to a set of standard data, and each sample value was calculated on the Microsoft Excel.

[2] = test system: Paneth cells in ENR+CD organoids; assay: Flow cytometry of 3D-cultured intestinal organoids, Paneth cells (lysozyme-positive, CD24-positive); type: cell-based, mouse
Description: Flow cytometry analysis (3D culture). ISC-enriched organoids cultured in 3D Matrigel with ENRCV media were passaged to 24-well plate in 3D Matrigel with ENRCV. At day zero, media were replaced to ENRCD with or without indicated compounds, and media were replaced every other day. At day six, cells were washed with basal media, and then harvested from Matrigel by mechanical disruption in TrypLE Express (ThermoFisher, 12605010) to remove Matrigel and dissociate organoids to single cells. After vigorous pipetting and incubation at 37° C. for 20 min, dissociated organoids were strained through a 35 μm cell strainer into a tube (Falcon, 352235). […] Cell pellets were resuspended in FACS buffer (2% FBS in PBS), and then transferred to an ultra low-bind 96-well plate (Corning, 7007). Cells were stained with Zombie-violet viability dye (BioLegend, 423107) at 100× for viability staining and/or antibody staining solution. FITC-conjugated antibody for lysozyme (Dako, F0372) and APC-conjugated antibody for CD24 (BioLegend, 138505) were used at 100× dilution. Flow cytometry was performed using an LSR Fortessa (BD; Koch Institute Flow Cytometry Core at MIT). The data were analyzed using FlowJo v10 software.
The results of primary and secondary screening reflect a mixture of potential effects arising from small molecule treatment which may result in increases in total LYZ secretion. This includes contributions from enhanced Paneth cell differentiation, altered Paneth cell activity and changes in total cell number concurrent with differentiation. To better inform how the 6 compounds identified in the screen increased total secreted LYZ, and to isolate only those which enhance Paneth differentiation robustly, Applicants next utilized flow cytometry to measure the changes in Paneth cell representation within the treated organoids. […] Single live cells were selected by several gating strategies and Paneth cells were identified as lysozyme-high, CD24-mid, side scatter-high (SSC-high) (FIG. 27E). […] To evaluate whether the culture media supplements C and D may alter the effects of the 6 hits, Applicants also performed lysozyme assay in the canonical ENR culture condition in 3-D (because Paneth cells exist in an immature state within ENR, Applicants were unable to robustly quantify Paneth cell number via flow cytometry).
Flow cytometry. ISC-enriched organoids in 3D Matrigel culture were passaged to a 48-well plate and induced differentiation for 6 days by ENR+CD media containing DMSO or each drug indicated in the figures. DMSO- or drug-containing media were changed every other day. On day 6, cells were washed twice with basal media, then harvested from Matrigel by the mechanical disruption in TrypLE Express (Thermo, #12605010) to remove Matrigel and dissociate organoids to single cells. After vigorous pipetting and incubation at 37° C. for 15 min, the cell solution was diluted twice with basal media and centrifuged at 300 ref for 3 min. The cell pellet was resuspended in FACS buffer (PBS containing 2% FBS) and replaced into a 96-well Clear Round Bottom Ultra-Low Attachment Microplate (Corning, #7007). The cell solution was centrifuged again at 300 rcf for 3 min at 4° C. to pellet the cells. Cells were stained with Zombie-violet dye (BioLegend, #423113) at 100× for viability staining for 20 min at RT in the dark. After centrifugation for 3 min at 300 rcf, cells were fixed in fixation buffer (FACS buffer containing 1% formaldehyde (Thermo, #28906)) for 15 min on ice in the dark. Cells were centrifuged again for 3 min at 300 rcf and blocked with staining buffer (FACS buffer containing 0.5% Tween20 (Sigma, P2287)) for 15 min at RT in the dark. Pelleted cells by the centrifugation for 3 min at 300 rcf are stained with FITC-conjugated anti-lysozyme antibody (Dako, F0372) and APC-conjugated anti-CD24 antibody (Biolegend, #138505) at 100× for 45 min at RT in the dark.

[3] = 2-day treatment within 6-day ENR+CD differentiation, read at day 6

Compound: O=C(/C=C\n1cnc(-c2cc(C(F)(F)F)cc(C(F)(F)F)c2)n1)NNc1cnccn1 [KPT-330]
- enrichment, treatment day 4-6 (by LYZ secretion assay) [1, 3]: minorly enriched
- most effective dose among tested concentrations (LYZ secretion) ([1]; 6 days ENR+CD, basal and Cch-stimulated): 160 nM
- Paneth cell-specific activity (lysozyme assay) in conventional ENR culture ([1]; ENR media, 3-D, 6 days): enhancing Paneth cell-specific activity
- Paneth cell activity (LYZ secretion, basal and Cch-stimulated), dose dependence ([1]; up to 160 nM, 6 days ENR+CD): enhanced Paneth cell activity in a dose-dependent manner
- enrichment in mature Paneth cells, treatment day 0-2 [2, 3]: greatest enrichment in mature Paneth cells
- enrichment in mature Paneth cells, treatment day 2-4 [2, 3]: moderate enrichment
- enrichment in mature Paneth cells, treatment day 4-6 (by flow cytometry) [2, 3]: no different than untreated
- increase in mature Paneth cells at day 6 of differentiation ([2]; ENR+CD + KPT-330 vs control): 2 fold
- mature Paneth cell population within organoids ([2]; most potent dose from 2.5-D screening, ENR+CD 6 days, 3-D culture): significantly enhanced the mature Paneth cell population
